The source of these data is patent publication US8507214B2, “Elisa kit for detecting lincomycin” (Beijing Kwinbon Biotechnology Co., Ltd., priority 2008, dated 2013).

The structures appear in SMILES notation.

Experiment [1] deals with lincomycin monoclonal antibody prepared from hapten LIN-S1. The experiment in a line: Cross reaction (specificity) of the monoclonal antibody prepared from hapten LIN-S1. The format is binding, mouse. The following applies: antibody from hapten scheme LIN-S1; lincomycin = 100%. The procedure: (§1) When the mouse serum titer is determined as high, the spleen cells are collected and fused with SP2/0 myeloma cells at an amount ratio of 7:1. The cell supernatant is detected by indirect competitive ELISA for screening the positive wells. The cells in the positive wells are cloned via limiting dilution method until a hybridoma cell secreting monoclonal antibody is obtained. The 50% inhibitory concentration and specificity of the monoclonal antibodies prepared from the two hapten schemes above are detected.

For experiment [2], the system named is monoclonal antibody prepared from hapten LIN-S2. The experiment in a line: Cross reaction (specificity) of the monoclonal antibody prepared from hapten LIN-S2. The format is binding, mouse. The following applies: antibody from hapten scheme LIN-S2; lincomycin = 100%. Here is the method:
as §1

With `CC[C@H]1OC(=O)[C@H](C)[C@@H](O[C@H]2C[C@@](C)(OC)[C@@H](O)[C@H](C)O2)[C@H](C)[C@@H](O[C@@H]2O[C@H](C)C[C@H](N(C)C)[C@H]2O)[C@](C)(O)C[C@@H](C)C(=O)[C@H](C)[C@@H](O)[C@]1(C)O` [Erythromycin], the Cross reaction in experiment [1] and in experiment [2] was less than 1% in each case.

As to `CC[C@H]1OC(=O)C[C@@H](O)[C@H](C)[C@@H](O[C@@H]2O[C@H](C)[C@@H](O[C@H]3C[C@@](C)(O)[C@@H](O)[C@H](C)O3)[C@H](N(C)C)[C@H]2O)[C@@H](CC=O)C[C@@H](C)C(=O)/C=C/C(C)=C/[C@@H]1CO[C@@H]1O[C@H](C)[C@@H](O)[C@@H](OC)[C@H]1OC` [Tylosin], the Cross reaction in experiment [1] and in experiment [2] was less than 1% each time.

Regarding `CCC[C@@H]1C[C@@H](C(=O)N[C@@H]([C@H]2O[C@H](SC)[C@H](O)[C@@H](O)[C@H]2O)[C@@H](C)O)N(C)C1` [Lincomycin], the Cross reaction in experiment [1] and in experiment [2] was 100% throughout.

Take `[H]/N=C(/N)N[C@H]1[C@H](O)[C@@H](O)[C@H](O[C@@H]2O[C@@H](C)[C@](O)(C=O)[C@H]2O[C@@H]2O[C@@H](CO)[C@H](O)[C@@H](O)[C@@H]2NC)[C@@H](N/C(N)=N\[H])[C@@H]1O` [Streptomycin]: the Cross reaction in experiment [1] is less than 1%; in experiment [2], 9.2%.
